Measured values: patent US9611246B2, “Compositions, apparatus, systems, and methods for resolving electronic excited states” (HALLSTAR INNOVATIONS CORP., priority 2012, dated 2017)

Assays:
[1] = Voltammetry, redox potential with respect to Ag/AgCl reference electrode; format: physicochemical; conditions: vs Ag/AgCl
Excerpt: For these experiments, dimethylsulfoxide (DMSO) and tetrabutylammonium perchlorate (TBAP) were obtained from Sigma Aldrich and used as received. […] Platinum wires (BASi MW-1032) of diameter 0.5 mm were employed for both the working electrode (WE) and counter electrode (CE). A dry-solvent tolerant Ag/AgCl reference electrode (RE) was obtained from eDAQ (Model ET072). The WE and CE were cleaned prior to each by first rinsing in acetone, then DI, followed by soaking in ˜50% aqueous H2SO4 for 10-20 minutes and then a final DI rinse. The RE electrode was cleaned prior to each use by an acetone rinse followed by DI rinse. Each sample solution was prepared in a fresh glass vial which had been rinsed with DI then acetone and allowed to dry Immediately after preparing each solution, it was purged with pure N2 gas for 15-20 minutes with the electrodes in place. Voltammetry data was collected shortly afterwards with an EG&G PAR 263 A Potentiostant/Galvanostat operated using a Labview-based control program. Scans were performed at various potential ranges between +2.0V and −2.0V (vs Ag/AgCl); all scan rates were constant at 200 mV/s.

[2] = Protoporphyrin IX fluorescence lifetime quenching (singlet excited state); format: physicochemical; conditions: PPIX; for bimolecular quenching rate constant for singlet excited state quenching (in words): acetonitrile; for Singlet Quenching Rate Constant: acetonitrile solutions at room temperature
Method: Fluorescence lifetime measurements are a convenient way to measure singlet state quenching by stabilizers. Protoporphyrin IX decay traces were recorded in the absence and presence of compound I(a)(1) and alkoxy […] (FIG. 3). […] The collected data shown in FIG. 3 were used to determine the bimolecular quenching rate constant for singlet excited state quenching by the compounds. The quenching rate constant may be directly extracted from the slope of the plot of the inverse fluorescence lifetime vs. the concentration of the two compounds (FIG. 4). […] The biomolecular quenching rate constants for singlet excited state (kq^S) and triplet excited state (kq^T) quenching of PPIX by stabilizers in acetonitrile solutions at room temperature is shown in Table 4, as well and the Stern-Volmer rate constants.

[3] = Protoporphyrin IX triplet state quenching by laser flash photolysis; format: physicochemical; conditions: PPIX, acetonitrile solutions at room temperature
Method: To investigate if triplet states of protoporphyrin IX are quenched by the two compounds, laser flash photolysis experiments were performed. In these experiments, a deoxygenated acetonitrile solution of protoporphyrin IX is excited with short laser pulses from a Nd-YAG laser (355 nm, 5 ns pulse width). Difference absorption kinetic traces were recorded at different observation wavelengths (300 to 800 nm) and from these a transient absorption spectrum was constructed (FIG. 5A). […] In addition, two bands are observed at 320 and 440 nm, which are assigned to the triplet-triplet absorption of protoporphyrin IX. […] Triplet absorption kinetics at 440 nm may be utilized to obtain triplet quenching rate constants by the stabilizers. Triplet decay traces at 440 nm were recorded in the presence of different amounts of the alkoxy […], Formulas […])(1), and the mixture of II(b)(1) and II(c)(1). The decay traces were fitted to a first-order kinetics. The plot of these pseudo-first-order rate constants (inverse decay lifetime) vs. the concentration of the two compounds gives directly the bimolecular triplet quenching rate constant from the slope (FIG. 6). The biomolecular quenching rate constants for singlet excited state (kq^S) and triplet excited state (kq^T) quenching of PPIX by stabilizers in acetonitrile solutions at room temperature is shown in Table 4, as well and the Stern-Volmer rate constants.

[4] = Stern-Volmer analysis of singlet oxygen suppression; format: physicochemical
Excerpt: The singlet oxygen phosphorescence intensity in the absence of the compound of Formulas I(a)(1), II(a)(1), II(d)(1), II(e)(1), or a mixture of II(b)(1) and II(c)(1) (I0) divided by the singlet oxygen phosphorescence intensity in the presence of compounds of Formula I/II(I) was plotted against the Formula I/II concentration (FIG. 16). From the slope of these plots (Stern-Volmer constant) and the lifetime of the quenched excited state, the bimolecular quenching constant can be extracted. If the excited state, which is quenched by the compound of Formula I(a)(1) (which causes a reduction in singlet oxygen production) is the singlet excited state of protoporphyrin IX then, using the previously measured fluorescence lifetime in acetonitrile (if =12.7 ns) a quenching rate constant of 2.4×10^9 M^−1 s^−1 is estimated. […] The rate constant derived from singlet oxygen phosphorescence quenching (FIG. 16) is only half of the more directly derived rate constant from fluorescence quenching, which could be caused by the difference in solvents or by some contribution of protoporphyrin triplet quenching by the compound of Formula I(a)(1). […] This rate constant is 5 times higher than the directly measured rate constant by laser flash photolysis (6.1×10^6 M^−1 s^−1). […] It must be noted that protoporphyrin IX triplet lifetime of ˜1 μs in air saturated DMSO was only estimated based on the directly measured triplet lifetime in air saturated acetonitrile and considering the different oxygen concentration in DMSO compared to acetonitrile. If necessary, the protoporphyrin IX triplet lifetime in air saturated DMSO can easily be measured by laser flash photolysis. The complex reaction mechanism is summarized in Scheme 1 (FIG. 17).
The biomolecular quenching rate constants for singlet excited state (kq^S) and triplet excited state (kq^T) quenching of PPIX by stabilizers in acetonitrile solutions at room temperature is shown in Table 4, as well and the Stern-Volmer rate constants.
Stern-Volmer constants are in direct correlation with the singlet oxygen suppression efficiency. Table 4 (above) summarizes the Stern-Volmer constants and PPIX singlet and triplet state quenching rate constants. Three different ranges of Stern-Volmer constants were observed. […] For compounds I(a)(1), II(d)(1), and the mixture of II(b)(1) and II(c)(1), Stern-Volmer constants of about 30 M^−1 were observed. For these three stabilizers, high PPIX singlet quenching rate constants (about 5×10^9 M^−1 s^−1) but low triplet quenching rate constants (<10^9 M^−1 s^−1) were observed. Here, the singlet oxygen suppression is probably dominated by PPIX singlet excited state quenching by these stabilizers. […] Because of the very high PPIX triplet quenching rate constant by compound II(a)(1) (3.2×10^9 M^−1 s^−1), the singlet oxygen suppression is probably dominated by triplet quenching. […] These kinetic parameters may include the MePPIX triplet and singlet lifetimes in air saturated and oxygen free CDCl3 and the bimolecular quenching constant by oxygen.

[5] = Photostabilization of Avobenzone and OMC, solution on quartz (Experiment 6-2); format: physicochemical; conditions: Avobenzone 3%, OMC 7.5%
Excerpt: Experiment 6-2 compares the compounds at 3% to photostabilize Avobenzone at 3% and OMC at 7.5%. The results are shown in Table 2 and graphically in FIG. 20.

[6] = UV and visible light absorption spectra of stabilizers; format: physicochemical; conditions: acetonitrile
Method: UV and visible light absorption spectra were recorded to investigate to what extent each stabilizer itself absorbs UV light. […] Protoporphyrin IX has weak absorption bands above 450 nm, where the two compounds are transparent (FIG. 2). The compound with the oxygen bridge (Formula II(d)(1)) caused a bathocromic shift of the UV absorption of the lowest energy band. The compound with the sulfur bridge (Formula II(e)(1)) shifted the lowest energy band further into the visible region.

[7] = test system: visible light-induced free radicals in pig skin; assay: Visible light-induced free radicals in ALA-treated pig skin by Electron Spin Resonance; conditions: 1% reference
Method: A conjugated fused tricycle compound according to Formula II(a)(1) reduced visible light-induced free radicals in skin by up to 89% and did so in a dose-dependent manner (FIG. 21). The study was conducted using pig skin, which is recognized for its similarity to human skin. Topical application of aminolevulinic acid (ALA) induced the skin to over-produce the endogenous photosensitizer Protoporphyrin IX (PPIX). Solutions of Formula II(a)(1) at different concentrations were then topically applied to the ALA treated skin after which it was exposed to bright green light. The resulting free radical content of the skin was then measured by Electron Spin Resonance (ESR). Studies conducted in solution have shown that Formula II(a)(1) suppresses singlet oxygen production by PPIX. […] The mechanisms of action of Formula II(a)(1) and Tocopherol are different: the former prevents free radicals from forming; the latter scavenges free radicals after they appear.

[8] = reference value; cited from earlier work
[9] = 0.01 M in 0.1 M TBAP in DMSO, 200 mV/s

Compound	% UVA ([5]; stabilizer level 1.0) [%]	% UVB ([5]; stabilizer level 1.0) [%]	% UVA ([5]; stabilizer level 2.0) [%]	% UVB ([5]; stabilizer level 2.0) [%]	% UVA ([5]; stabilizer level 4.0) [%]	% UVB ([5]; stabilizer level 4.0) [%]	further results
COC(=O)C(C#N)=c1c2ccccc2c(=C(C#N)C(=O)OC)c2ccccc12 [Formula II(b)(1)]	–	–	–	–	–	–	first (or only) redox couple, oxidation peak [1, 9]: +54 mV; first (or only) redox couple, reduction peak [1, 9]: −545 mV; first (or only) redox couple, redox potential ([1]; estimated from the peaks): −245 mV
COC(=O)C(C#N)=C1c2ccccc2Oc2ccccc21 [Formula II(d)(1)]	–	–	–	–	–	–	bimolecular quenching rate constant for singlet excited state quenching (in words) [2]: high quenching rate constant; Singlet Quenching Rate Constant [2]: 3.7 10^9 M^−1s^−1; Triplet Quenching Rate Constant [3]: 0.14 10^9 M^−1s^−1
COC(=O)C(C#N)=C1c2ccccc2Sc2ccccc21 [Formula II(e)(1)]	–	–	–	–	–	–	bimolecular quenching rate constant for singlet excited state quenching (in words) [2]: high quenching rate constant; Singlet Quenching Rate Constant [2]: 0.65 10^9 M^−1s^−1; second redox couple, oxidation peak (large) [1]: +434 mV; first (or only) redox couple, oxidation peak [1, 9]: −782 mV; first (or only) redox couple, reduction peak [1, 9]: −969 mV; second redox couple, reduction peak [1, 9]: −1409 mV; first (or only) redox couple, redox potential ([1]; estimated from the peaks): −875 mV; second redox couple, redox potential ([1]; estimated from the peaks): −1347 mV; second redox couple, oxidation peak ([1]; the small peak where two are given): −1286 mV; Stern-Volmer Constant of ^1O2 Suppression [4]: 1.2 M⁻¹; singlet oxygen suppression (in words) [4]: only negligible singlet oxygen suppression; Triplet Quenching Rate Constant [3]: 0.0012 10^9 M^−1s^−1
Cc1c(C)c2c(c(C)c1O)CCC(C)(CCCC(C)CCCC(C)CCCC(C)C)O2 (centres unmarked) [Tocopherol, reference compound]	–	–	–	–	–	–	Free Radicals (a.u.) ([7]; ALA-treated pig skin): 1955 ± 366 a.u.; Free Radicals (%) ([7]; relative to 0 mM control): 78%
O=C(c1ccccc1)c1ccccc1 [benzophenone]	–	–	–	–	–	–	quantum yield of singlet oxygen generation (reference) [8]: 0.35

Further lines, with some results ahead:

% UVA ([5]; stabilizer level 1.0) [%]	% UVB ([5]; stabilizer level 1.0) [%]	% UVA ([5]; stabilizer level 2.0) [%]	% UVB ([5]; stabilizer level 2.0) [%]	% UVA ([5]; stabilizer level 4.0) [%]	% UVB ([5]; stabilizer level 4.0) [%]	Compound	further results
88.6	91.8	88.6	91.1	94.5	95.3	CCCCC(CC)COC(=O)C(C#N)=C1c2ccccc2Oc2ccccc21 (centres unmarked) [Formula Y-1-9, Ethylhexyl cyano xanthenylidene acetate]	–
85.5	90.0	91.0	93.8	90.8	93.9	CCCCC(CC)COC(=O)C(C#N)=C1c2ccccc2Sc2ccccc21 (centres unmarked) [Formula Y-1-15, Ethylhexyl cyano thioxanthenylidene acetate]	–
81.3	87.8	84.2	90.1	87.3	91.5	CCCCC(CC)COC(=O)C(C#N)=C(c1ccccc1)c1ccc(OC)cc1 (centres unmarked) [SolaStay S1, ethylhexyl methoxycrylene, reference compound]	λmax [6]: 336 nm; extinction coefficient (molar absorptivity) ([6]; at λmax): 13,200 M −1 cm −1
82.1	87.8	87.8	92.1	91.0	94.7	Ethylhexyl dimethyl 2,2′-anthracene-9,10-diylidenebis(cyanoacetate) [Formula Y-1-22]	–
